Experimental findings from US10821152B2, “Methods, agents and compositions for treatment of inflammatory conditions” (Betanien Hospital, priority 2014, dated 2020) are described below.

Non-standard residues stand in square brackets, D forms with d. Residues, ends and D or L forms follow the SMILES beside them. d(hArg(Et2)) = CCN=C(NCC)NCCCC[C@@H](N)C(=O)O; hArg(Et2) = CCN=C(NCC)NCCCC[C@H](N)C(=O)O; dPhe(4-Cl) = N[C@H](Cc1ccc(Cl)cc1)C(=O)O; d2Nal = N[C@H](Cc1ccc2ccccc2c1)C(=O)O; d3Pal = N[C@H](Cc1cccnc1)C(=O)O

Type in all cases: in vivo, human
The subject of assay [1] is patient with ulcerative colitis. Kind of assay: GnRH antagonist treatment for colitis (Ganirelix). The protocol: • person with ulcerative colitis for the past 10 years Experimental Treatment • Is offered Ganirelix 2 mg daily for 6months Assessment of Response • By 6 months they experience clinical remission with a partial Mayo score reduction from 3 to 0.
Assay [2] has as its system patient with tendonitis of the elbow. The experiment in a line: GnRH antagonist injection around tendon in tendonitis. The following applies: 1.5 mg injected around the affected tendon, 2 week post injection. As for the experimental part: • person diagnosed with tendonitis of the elbow with ultrasound confirming tendonitis. Experimental Treatment • Treated with an injection of GnRH antagonist, Ganirelix 1.5 mg, around the affected tendon. Assessment of Response • Before and 2 week post injection ultrasound images are taken to show a decrease in tendonitis of the elbow.

In assay [3] the test system is patient with seropositive rheumatoid arthritis. The experiment in a line: Treatment of RA using Ganirelix. As for the experimental part:
• person with seropositive rheumatoid arthritis with disease duration of 10 years. • Fulfilled ACR 2010 classification criteria for rheumatoid arthritis. Experimental Treatment • Had tried almost all available rheumatoid arthritis therapies available previously without effect. • Offered experimental GnRH antagonist therapy, Ganirelix 0.75 mg sc daily (0.25 mg sc three times a day) Assessment of Response at 4 Months • Disease activity score (DAS) reduction from 5.5 to 2.2 (remission). • A DAS reduction of 0.6 units is defined as a clinical response to treatment (1). • Their ESR decreased from 28 mm to 19 mm, with a normalization of their CRP from 23 mg/L to 5 mg/L. This is supported by the decrease in their anti-cyclic citrullinated peptide (CCP) antibodies from 27 u/mL. to 14 u/mL.

In the case of `CCN=C(NCC)NCCCC[C@H](NC(=O)[C@H](CC(C)C)NC(=O)[C@@H](CCCCNC(=NCC)NCC)NC(=O)[C@H](Cc1ccc(O)cc1)NC(=O)[C@H](CO)NC(=O)[C@@H](Cc1cccnc1)NC(=O)[C@@H](Cc1ccc(Cl)cc1)NC(=O)[C@@H](Cc1ccc2ccccc2c1)NC(C)=O)C(=O)N1CCC[C@H]1C(=O)N[C@H](C)C(N)=O` [Ganirelix] (Ac-[d2Nal][dPhe(4-Cl)][d3Pal]SY[d(hArg(Et2))]L[hArg(Et2)]P[dA]-NH2), in assay [1] (Ganirelix 2 mg daily, by 6 months (clinical remission)), the “partial Mayo score” value is 0. In addition, the “partial Mayo score” value in assay [1] (before Ganirelix) is listed as 3. Besides, the “tendonitis of the elbow on ultrasound” value in assay [2] is recorded as “decrease”. Further, in assay [3] (at 4 months), the CRP came out at 5 mg/L, the ESR was determined as 19 mm, the “anti-cyclic citrullinated peptide (CCP) antibodies” value was found to be 14 u/mL and the rheumatoid factor level was 75 kIU/L. Further, the “Disease activity score (DAS)” value in assay [3] (at 4 months, 0.75 mg sc daily (remission)) came to 2.2. For the same compound, in assay [3] (before Ganirelix), the CRP is given as 23 mg/L, the “Disease activity score (DAS)” value worked out at 5.5, the ESR amounted to 28 mm and the “anti-cyclic citrullinated peptide (CCP) antibodies” value came out at 27 u/mL. The compound further came in with a rheumatoid factor level in assay [3] (before Ganirelix) of 113 kIU/L.
